Laboratory results: US9290451B2 (Hoffmann-La Roche Inc., priority 2011, dated 2016)

What was measured:
[1] = molecular target: human CB1 receptors (Homo sapiens (Human), UniProt P21554); assay: cAMP assay, CHO cells expressing human CB1 receptors; assay type: cell-based; conditions: CHO cells expressing human CB1, cAMP; read-out: human CB1 EC50
In short: (§1)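 CHO cells expressing human CB1 or CB2 were preincubated 30 min at 30 °C in Krebs Ringer bicarbonate buffer with 1 mM IBMX, then exposed to compound 30 min at 30 °C. cAMP quantified by time-resolved FRET against a cAMP standard curve; EC50 values derived.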

[2] = molecular target: human CB2 receptors (Homo sapiens (Human), UniProt P34972); assay: cAMP assay, CHO cells expressing human CB2 receptors; assay type: cell-based; conditions: CHO cells expressing human CB2, cAMP; read-out: human CB2 EC50
In short: as §1

Chain of human CB1 receptors (P21554 whole entry): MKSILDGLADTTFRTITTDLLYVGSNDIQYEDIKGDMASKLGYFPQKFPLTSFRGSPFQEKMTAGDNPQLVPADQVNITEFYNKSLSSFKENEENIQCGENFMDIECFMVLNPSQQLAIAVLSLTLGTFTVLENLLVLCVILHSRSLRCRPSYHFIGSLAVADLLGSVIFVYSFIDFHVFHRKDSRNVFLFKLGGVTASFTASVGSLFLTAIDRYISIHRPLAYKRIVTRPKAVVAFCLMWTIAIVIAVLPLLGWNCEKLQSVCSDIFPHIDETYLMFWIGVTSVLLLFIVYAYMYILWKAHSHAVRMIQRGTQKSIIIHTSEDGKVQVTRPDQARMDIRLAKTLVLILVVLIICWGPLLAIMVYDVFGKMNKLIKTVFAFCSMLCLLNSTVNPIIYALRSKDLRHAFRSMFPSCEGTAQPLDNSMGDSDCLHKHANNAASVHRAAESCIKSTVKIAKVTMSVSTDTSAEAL
Chain of human CB2 receptors (P34972 whole entry): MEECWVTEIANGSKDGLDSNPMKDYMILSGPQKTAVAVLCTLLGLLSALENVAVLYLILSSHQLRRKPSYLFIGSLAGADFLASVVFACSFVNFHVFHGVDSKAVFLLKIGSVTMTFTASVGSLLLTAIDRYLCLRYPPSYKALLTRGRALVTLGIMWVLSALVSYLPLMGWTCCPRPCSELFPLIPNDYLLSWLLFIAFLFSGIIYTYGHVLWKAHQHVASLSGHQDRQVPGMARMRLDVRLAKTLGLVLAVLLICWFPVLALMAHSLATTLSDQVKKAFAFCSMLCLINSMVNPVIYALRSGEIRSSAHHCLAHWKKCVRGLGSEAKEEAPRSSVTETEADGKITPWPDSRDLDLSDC

Row | Structure (SMILES) | EC50 [1] | EC50 [2]
1 | CC(C)CC(C#N)NC(=O)c1ccc(N2CC(F)(F)C2)c(OCC2CC2)n1 (centres unmarked) [Example 271, 6-Cyclopropylmethoxy-5-(3,3-difluoro-azetidin-1-yl)-pyridine-2-carboxylic acid (1-cyano-3-methyl-butyl)-amide] | > 10000 nM | 7.9 nM
2 | CC(C)(NC(=O)c1ccc(C2CCOCC2)c(OCC2CC2)n1)c1ncco1 [Example 93, 6-Cyclopropylmethoxy-5-(tetrahydro-pyran-4-yl)-pyridine-2-carboxylic acid (1-methyl-1-oxazol-2-yl-ethyl)-amide] | > 10000 nM | 120 nM
3 | CCOC(=O)C(CC)(CC)NC(=O)c1ccc(C(F)(F)F)c(OCC2CC2)n1 [Example 312, 2-[(6-Cyclopropylmethoxy-5-trifluoromethyl-pyridine-2-carbonyl)-amino]-2-ethyl-butyric acid ethyl ester] | > 10000 nM | 2.4 nM
4 | CNC(=O)[C@H](CC(C)(C)C)NC(=O)c1ccc(N2CCC23COC3)c(OCC2CC2)n1 [Example 234, 6-Cyclopropylmethoxy-5-(6-oxa-1-aza-spiro[3.3]hept-1-yl)-pyridine-2-carboxylic acid ((S)-3,3-dimethyl-1-methylcarbamoyl-butyl)-amide] | > 10000 nM | 8.3 nM
5 | Cc1nc(C(C)(C)NC(=O)c2ccc(N3CC(=O)C3)c(OCC3CC3)n2)no1 [Example 322, 6-Cyclopropylmethoxy-5-(3-oxo-azetidin-1-yl)-pyridine-2-carboxylic acid [1-methyl-1-(5-methyl-[1,2,4]oxadiazol-3-yl)-ethyl]-amide] | > 10000 nM | 424 nM
6 | CCC(CC)(NC(=O)c1ccc(C2CC2)c(OCC2CC2)n1)C(=O)NCCO [Example 356, 5-Cyclopropyl-6-cyclopropylmethoxy-pyridine-2-carboxylic acid [1-ethyl-1-(2-hydroxy-ethylcarbamoyl)-propyl]-amide] | > 10000 nM | 5.2 nM
7 | O=C(N[C@@H](CC1CC1)C(=O)NN1CCC(O)C1)c1ccc(C2CC2)c(OCC2CC2)n1 (single isomer, unassigned; (-)) [Example 380] | > 10000 nM | 584 nM
8 | CC(C)C[C@@H](NC(=O)c1ccc(N2CC(F)(F)C2)c(OCC2CC2)n1)c1cccnn1 [Example 354, 6-Cyclopropylmethoxy-5-(3,3-difluoro-azetidin-1-yl)-pyridine-2-carboxylic acid ((R)-3-methyl-1-pyridazin-3-yl-butyl)-amide] | > 10000 nM | 14.9 nM
9 | NC(=O)[C@H](NC(=O)c1ccc(N2CC(F)(F)C2)c(OCC2CC2)n1)C1CC1 [Example 377, 6-Cyclopropylmethoxy-5-(3,3-difluoro-azetidin-1-yl)-pyridine-2-carboxylic acid ((−)-carbamoyl-cyclopropyl-methyl)-amide] | > 10000 nM | 178 nM
10 | COCCOc1nc(C(=O)NC(C)(C)c2noc(C)n2)ccc1C1CC1 [Example 153, 5-Cyclopropyl-6-(2-methoxy-ethoxy)-pyridine-2-carboxylic acid [1-methyl-1-(5-methyl-[1,2,4]oxadiazol-3-yl)-ethyl]-amide] | > 10000 nM | 293 nM
11 | O=C(N[C@@H](CC1CC1)c1nccs1)c1ccc(N2CC(F)(F)C2)c(OCC2CC2)n1 [Example 146, 6-Cyclopropylmethoxy-5-(3,3-difluoro-azetidin-1-yl)-pyridine-2-carboxylic acid ((S)-2-cyclopropyl-1-thiazol-2-yl-ethyl)-amide] | > 10000 nM | 36.6 nM
12 | CC(C)C[C@H](NC(=O)c1cccc(Cc2ccc(F)cc2)n1)C(N)=O [Example 277, 6-(4-Fluoro-benzyl)-pyridine-2-carboxylic acid ((S)-1-carbamoyl-3-methyl-butyl)-amide] | 1700 nM | 16.6 nM
13 | CNC(=O)[C@@H](NC(=O)c1ccc(C2CC2)c(OCC2CC2)n1)c1ccccc1 [Example 225, 5-Cyclopropyl-6-cyclopropylmethoxy-pyridine-2-carboxylic acid ((−)-methylcarbamoyl-phenyl-methyl)-amide] | > 10000 nM | 48.4 nM
14 | O=C(NC1(c2nccs2)COC1)c1ccc(C2CC2)c(OCC(F)(F)F)n1 [Example 304, 5-Cyclopropyl-6-(2,2,2-trifluoro-ethoxy)-pyridine-2-carboxylic acid (3-thiazol-2-yl-oxetan-3-yl)-amide] | > 10000 nM | 135 nM
15 | CC(C)C[C@H](NC(=O)c1ccc(C2(O)COC2)c(OCC2CC2)n1)C(N)=O [Example 150, 6-Cyclopropylmethoxy-5-(3-hydroxy-oxetan-3-yl)-pyridine-2-carboxylic acid ((S)-1-carbamoyl-3-methyl-butyl)-amide] | > 10000 nM | 157 nM
16 | CC[C@H](NC(=O)c1ccc(C2CC2)c(OCC2CC2)n1)c1noc(C)n1 [Example 244, 5-Cyclopropyl-6-cyclopropylmethoxy-pyridine-2-carboxylic acid [(+)-1-(5-methyl-[1,2,4]oxadiazol-3-yl)-propyl]-amide] | > 10000 nM | 14.1 nM

Row | Structure (SMILES) | EC50 [1] | EC50 [2]
17 | Cc1nc(C(C)(C)NC(=O)c2ccc(C3CC3)c(OCC3CCOCC3)n2)no1 [Example 202, 5-Cyclopropyl-N-(2-(5-methyl-1,2,4-oxadiazol-3-yl)propan-2-yl)-6-((tetrahydro-2H-pyran-4-yl)methoxy)picolinamide] | 615 nM | 23.6 nM
18 | Cc1nc([C@H](CC2CC2)NC(=O)c2ccc(C3CCCC3)c(OCC3CC3)n2)no1 [Example 53, 5-Cyclopentyl-6-cyclopropylmethoxy-pyridine-2-carboxylic acid [(S)-2-cyclopropyl-1-(5-methyl-[1,2,4]oxadiazol-3-yl)-ethyl]-amide] | > 10000 nM | 45.7 nM
19 | CCC(CC)(NC(=O)c1ccc(C2CC2)c(OCC2CC2)n1)C(=O)OC [Example 251, 2-[(5-Cyclopropyl-6-cyclopropylmethoxy-pyridine-2-carbonyl)-amino]-2-ethyl-butyric acid methyl ester] | 90.6 nM | 1.4 nM
20 | O=C(c1ccc(N2CC(F)(F)C2)c(OCC2CC2)n1)N1CCC[C@H]1CO [Example 149, [6-Cyclopropylmethoxy-5-(3,3-difluoro-azetidin-1-yl)-pyridin-2-yl]-((S)-2-hydroxymethyl-pyrrolidin-1-yl)-methanone] | > 10000 nM | 174 nM
21 | O=C(NN1CCCCC1)c1ccc(Cl)c(-c2cccc(Cl)c2)n1 [Example 66, 5-Chloro-6-(3-chloro-phenyl)-pyridine-2-carboxylic acid piperidin-1-ylamide] | > 10000 nM | 216 nM
22 | CC(C)C[C@@H](CO)NC(=O)c1ccc(C2CC2)c(OCC(F)(F)F)n1 [Example 303, 5-Cyclopropyl-6-(2,2,2-trifluoro-ethoxy)-pyridine-2-carboxylic acid ((S)-1-hydroxymethyl-3-methyl-butyl)-amide] | > 10000 nM | 38 nM
23 | NC(=O)[C@@H](NC(=O)c1ccc(N2CC(F)(F)C2)c(OCC2CC2)n1)C1CC1 [Example 376, 6-Cyclopropylmethoxy-5-(3,3-difluoro-azetidin-1-yl)-pyridine-2-carboxylic acid ((+)-carbamoyl-cyclopropyl-methyl)-amide] | > 10000 nM | 59.5 nM
24 | Cc1ccc(C(=O)NC(C)(C)c2nccs2)nc1-c1cccc(Cl)c1 [Example 50, 6-(3-Chloro-phenyl)-5-methyl-pyridine-2-carboxylic acid (1-methyl-1-thiazol-2-yl-ethyl)-amide] | 1490 nM | 133 nM
25 | CC(C)CC(C)(NC(=O)c1ccc(C2CC2)c(OCC2CC2)n1)C(N)=O (centres unmarked) [Example 178, N-(1-Amino-2,4-dimethyl-1-oxopentan-2-yl)-5-cyclopropyl-6-(cyclopropylmethoxy)picolinamide] | > 10000 nM | 42.2 nM
26 | CC(C)CC(NC(=O)c1ccc(N2CC(F)(F)C2)c(OCC2CC2)n1)c1ccccn1 (centres unmarked) [Example 315, 6-Cyclopropylmethoxy-5-(3,3-difluoro-azetidin-1-yl)-pyridine-2-carboxylic acid (3-methyl-1-pyridin-2-yl-butyl)-amide] | 2320 nM | 191 nM
27 | Cc1csc(C(C)(C)NC(=O)c2ccc(C3CC3)c(OCC3CC3)n2)n1 [Example 294, 5-Cyclopropyl-6-cyclopropylmethoxy-pyridine-2-carboxylic acid [1-methyl-1-(4-methyl-thiazol-2-yl)-ethyl]-amide] | > 10000 nM | 112 nM
28 | CC(C)CSc1nc(C(=O)N[C@@H](CC(C)C)C(N)=O)ccc1C1CC1 [Example 346, 5-Cyclopropyl-6-isobutylsulfanyl-pyridine-2-carboxylic acid ((S)-1-carbamoyl-3-methyl-butyl)-amide] | > 10000 nM | 11 nM
29 | CC(C)[C@](C)(CO)NC(=O)c1ccc(C2CC2)c(OCC2CC2)n1 [Example 191, 5-Cyclopropyl-6-cyclopropylmethoxy-pyridine-2-carboxylic acid ((R)-1-hydroxymethyl-1,2-dimethyl-propyl)-amide] | > 10000 nM | 57.7 nM
30 | NC(=O)[C@H](CC1CC1)NC(=O)c1ccc(N2CC(F)(F)C2)c(OCC2CC2)n1 [Example 103, 6-Cyclopropylmethoxy-5-(3,3-difluoro-azetidin-1-yl)-pyridine-2-carboxylic acid ((S)-1-carbamoyl-2-cyclopropyl-ethyl)-amide] | > 10000 nM | 7 nM
31 | N#C[C@H](NC(=O)c1ccc(C2CC2)c(OCC2CC2)n1)C1CC1 [Example 248, 5-Cyclopropyl-6-cyclopropylmethoxy-pyridine-2-carboxylic acid ((+)-cyano-cyclopropyl-methyl)-amide] | > 10000 nM | 51 nM
